This passage reports IC50 and IC90 results from ChEMBL document CHEMBL4483862, “Open-source discovery of chemical leads for next-generation chemoprotective antimalarials” (2018).

This experiment deals with Plasmodium berghei. The experiment is described as follows: Luciferase/luciferin-expressing antifolate-resistant parasites were used to infect a culture of HepG2 cells that were pre-incubated with compounds. Infected hepatocytes emit light due to the luciferase reaction. Assay results are presented as the percent inhibition of light emission compared to control. […]. To be noted: sporozoite; for IC90: read-out: LUCIFERASE INFECTION ASSAY - IC90. It counts as functional.

Where [1] appears, read: read-out: LUCIFERASE INFECTION ASSAY - IC50.

Where only a bound is given, the exact number is not on record here.

As usually defined, the IC50 is the midpoint of a concentration-inhibition curve. Broadly, the IC90 is the concentration needed for an effect of 90%. For the compound `C=CCn1c(COc2ccc(CC)cc2)nnc1SCC(=O)/C(C#N)=C(\C)N`, the IC90 is > 10 µM. The IC50 (HEPG2TOX_HILL_SLOPE 17.4, HEPG2TOX_R_SQUARED 0.832, PBLUC_HILL_SLOPE 1.76, PBLUC_R_SQUARED 0.574, read-out: LUCIFERASE INFECTION ASSAY - IC50) was determined as 6.67 µM.

On to `CN(Cc1ccccc1)C(=O)Nc1cccc2ncccc12`, for which the IC90 is > 10 µM. Moreover, the IC50 under setting [1] is > 10 µM.

As for `Cc1nn(C(=O)c2c(Cl)cccc2Cl)c(C)c1Cc1c(Cl)cccc1Cl`, the IC90 is > 7.71 µM. Where the note is “PBLUC_HILL_SLOPE 3.14, PBLUC_R_SQUARED 0.492, read-out: LUCIFERASE INFECTION ASSAY - IC50”, the IC50 was found to be 5.28 µM.

`O=C(COC(=O)c1ccccc1NCCO)NC1c2ccccc2-c2ccccc21`: the IC90 turned out to be 4.07 µM. Moreover, the IC50 (FFLUC_HILL_SLOPE 129, FFLUC_R_SQUARED 0.809, HEPG2TOX_HILL_SLOPE 1.96, HEPG2TOX_R_SQUARED 0.833, PBLUC_HILL_SLOPE 15.2, PBLUC_R_SQUARED 0.28, read-out: LUCIFERASE INFECTION ASSAY - IC50) was found to be 3.52 µM.

For `Cc1cccc(N2CCN(C(=O)c3ccc4[nH]c(C)c(C)c4c3)CC2)c1C`, the IC90 is 1.14 µM. The IC50 (FFLUC_HILL_SLOPE 18.8, FFLUC_R_SQUARED 0.39, HEPG2TOX_HILL_SLOPE 1.29, HEPG2TOX_R_SQUARED 0.937, PBLUC_HILL_SLOPE 10.9, PBLUC_R_SQUARED 0.355, read-out: LUCIFERASE INFECTION ASSAY - IC50) is 0.935 µM.

For the compound `CN(Cc1ccc(-c2ccc(Cl)cc2)o1)Cc1nnc2n(C)c(=O)c3ccccc3n12`, the IC90 was > 10 µM. For the same compound, the IC50 under setting [1] is > 10 µM.

Take `CCn1c(NC(=O)CCc2ccc3c(c2)OCCO3)nc2ccccc21`: the IC90 was > 10 µM. For the same compound, under “PBLUC_HILL_SLOPE 14.7, PBLUC_R_SQUARED 0.597, read-out: LUCIFERASE INFECTION ASSAY - IC50”, the IC50 came out at 9.02 µM.

Take `COc1cccc(NC(=O)c2cccc(C3(CNc4cccc(OC(F)(F)F)c4)CC3)c2)c1`: the IC90 was > 10 µM. Under “PBLUC_HILL_SLOPE 3.47, PBLUC_R_SQUARED 0.3, read-out: LUCIFERASE INFECTION ASSAY - IC50”, the IC50 came to 9.2 µM.

With `O=C(N/N=C/c1ccc(N2CCCCC2)s1)c1ccccc1O`, the IC90 is 5.71 µM. For the same compound, the IC50 (PBLUC_HILL_SLOPE 8.76, 2.86, PBLUC_R_SQUARED 0.104, 0.555, read-out: LUCIFERASE INFECTION ASSAY - IC50) came to 3.37 µM.

With `Cc1c(C(=O)OC(C)C(=O)Nc2ccc(F)cc2Cl)sc2nc3n(c(=O)c12)CCC3` (stereo not given), the IC90 was > 10 µM. Also, for the setting “FFLUC_HILL_SLOPE 12.5, FFLUC_R_SQUARED 0.0754, PBLUC_HILL_SLOPE 2.35, PBLUC_R_SQUARED 0.872, read-out: LUCIFERASE INFECTION ASSAY - IC50”, the IC50 was determined as 5.4 µM.

`CC(C)(O)C#Cc1ccc(/C=N/Nc2cccc(C(F)(F)F)n2)cc1`: the IC90 worked out at 6.05 µM. The IC50 (PBLUC_HILL_SLOPE 6.25, PBLUC_R_SQUARED 0.631, read-out: LUCIFERASE INFECTION ASSAY - IC50) worked out at 4.26 µM.

Consider `O=C(Nc1ccccc1-c1nc(=O)c2ccccc2[nH]1)C12CC3CC(CC(C3)C1)C2`, for which the IC90 is > 10 µM. Further, under “PBLUC_HILL_SLOPE 7.56, PBLUC_R_SQUARED 0.487, read-out: LUCIFERASE INFECTION ASSAY - IC50”, the IC50 is 9.01 µM.

Regarding `CCCn1c(NC(=O)CCN(c2ccc(C)cc2)S(=O)(=O)c2ccc(C)cc2)nc2ccccc21`, the IC90 is > 10 µM. The 50% inhibitory concentration (IC50) under setting [1] was > 10 µM.

For the compound `CC(=O)NCc1ccc(-c2csc(NC(=O)c3cc(-c4ccco4)nc4c3c(C)nn4C)n2)cc1`, the IC90 was > 10 µM. Moreover, the IC50 under setting [1] is > 10 µM.

With `CC[n+]1ccccc1C=Cc1ccc(N(C)C)cc1`, the IC90 is 6.2 µM. Besides, under “HEPG2TOX_HILL_SLOPE 3.25, HEPG2TOX_R_SQUARED 0.92, PBLUC_HILL_SLOPE 1.1, PBLUC_R_SQUARED 0.874, read-out: LUCIFERASE INFECTION ASSAY - IC50”, the IC50 amounted to 0.835 µM.

For `CNc1nc2cnc(Nc3cccc(C)c3)cc2n1Cc1ccc(OC)c(OC)c1`, the IC90 is > 10 µM. Besides, where the note is “HEPG2TOX_HILL_SLOPE 6.56, HEPG2TOX_R_SQUARED 0.678, read-out: LUCIFERASE INFECTION ASSAY - IC50”, the IC50 was > 10 µM.

Regarding `O=C(Cc1csc(N2CCCC2=O)n1)Nc1nc(-c2ccc3c(c2)CCCC3)cs1`, the IC90 is > 10 µM. Also, the IC50 under setting [1] was > 10 µM.

`Cc1ccc(S(=O)(=O)Nc2ccc(Nc3nccn4c(-c5ccccc5Oc5ccccc5)cnc34)cc2)cc1`: the IC90 amounted to 5.41 µM. Also, the IC50 (PBLUC_HILL_SLOPE 1.64, PBLUC_R_SQUARED 0.733, read-out: LUCIFERASE INFECTION ASSAY - IC50) came out at 1.42 µM.

Take `Oc1ccccc1Nc1nc(NCc2ccccc2)c2ccccc2n1`: the IC90 was > 8.71 µM. Moreover, the IC50 under setting [1] worked out at 2.58 µM.

For the compound `O=C1N(Cc2ccccn2)C(=O)C2(CCN(Cc3cc4ccccc4o3)CC2)N1CCc1ccccc1`, the IC90 was > 6.67 µM. The IC50 (HEPG2TOX_HILL_SLOPE 6.35, HEPG2TOX_R_SQUARED 0.629, PBLUC_HILL_SLOPE 2.7, PBLUC_R_SQUARED 0.846, read-out: LUCIFERASE INFECTION ASSAY - IC50) came to 4.34 µM.

Take `CC1CCN(CCOc2ccc(-c3n[nH]cc3-c3ccccc3)c(O)c2)CC1`: the IC90 was > 8.74 µM. In addition, the IC50 (PBLUC_HILL_SLOPE 1.57, PBLUC_R_SQUARED 0.734, read-out: LUCIFERASE INFECTION ASSAY - IC50) is > 8.74 µM.

Take `Cn1ncc(C#N)c1NC(=O)c1cccc(Oc2ccccc2)c1`: the IC90 was found to be 8.69 µM. The IC50 (HEPG2TOX_HILL_SLOPE 1.03, HEPG2TOX_R_SQUARED 0.84, PBLUC_HILL_SLOPE 1.64, 1.43, PBLUC_R_SQUARED 0.588, 0.656, read-out: LUCIFERASE INFECTION ASSAY - IC50) was 2.85 µM.

For the compound `CSc1nccc(-c2sc(SC)c3c2CCCC3=O)n1`, the IC90 is > 10.2 µM. Moreover, the IC50 under setting [1] was > 10.2 µM.

For `COc1cc(/C=N/NC(=S)Nc2cc(Cl)ccc2Cl)ccc1OS(=O)(=O)c1ccc(C)cc1`, the IC90 was > 6.29 µM. Moreover, the IC50 under setting [1] was > 6.29 µM.

In the case of `Cc1ccc(-c2nnc(SCC(=O)Nc3ccccc3C(=O)NCc3ccccc3)[nH]2)cc1`, the IC90 is > 10 µM. In addition, the IC50 under setting [1] is > 10 µM.

Consider `Cc1nn(-c2ccccc2)c(Cl)c1/C=N/N1CCN(c2ccc(Cl)cc2)CC1`, for which the IC90 was > 10 µM. Under setting [1], the IC50 was > 10 µM.

As for `Cc1cccc(CNc2nc3cnc(Nc4cccc(O)c4)cc3n2C)c1`, the IC90 is > 10 µM. In addition, the IC50 (FFLUC_HILL_SLOPE 6.96, FFLUC_R_SQUARED 0.0526, HEPG2TOX_HILL_SLOPE 13.6, HEPG2TOX_R_SQUARED 0.973, PBLUC_HILL_SLOPE 10.5, PBLUC_R_SQUARED 0.188, read-out: LUCIFERASE INFECTION ASSAY - IC50) is 8.85 µM.

For `CC(=N\Nc1ccc(F)cc1)/C(=N/O)C(=O)Nc1ccccc1`, the IC90 was > 10.5 µM. For the same compound, under setting [1], the IC50 is > 10.5 µM.

In the case of `Cc1nnnn1/C(=C\c1cccc(F)c1)C(=O)NC(C)c1cc2ccccc2o1` (stereo not given), the IC90 came to 4.08 µM. Besides, the IC50 (HEPG2TOX_HILL_SLOPE 3.7, HEPG2TOX_R_SQUARED 0.887, PBLUC_HILL_SLOPE 12.4, PBLUC_R_SQUARED 0.779, read-out: LUCIFERASE INFECTION ASSAY - IC50) was found to be 3.42 µM.

On to `CC(C)c1nccn1Cc1cccc(NC(=O)c2ccc(Br)o2)c1`, for which the IC90 is > 10 µM. Moreover, under setting [1], the IC50 is > 10 µM.

Turning to `CCOc1ccccc1C(=O)N[C@H](C(=O)Nc1sc2c(c1C(N)=O)CCC2)C(C)C`, the IC90 was 9.93 µM. Moreover, the IC50 (HEPG2TOX_HILL_SLOPE 7.99, HEPG2TOX_R_SQUARED 0.813, PBLUC_HILL_SLOPE 17.7, PBLUC_R_SQUARED 0.214, read-out: LUCIFERASE INFECTION ASSAY - IC50) amounted to 8.77 µM.

Turning to `COc1ccccc1N1CCN(c2ncnc3sc(C)c(-c4ccc(F)cc4)c23)CC1`, the IC90 was > 10 µM. Further, the IC50 (HEPG2TOX_HILL_SLOPE 0.826, HEPG2TOX_R_SQUARED 0.707, read-out: LUCIFERASE INFECTION ASSAY - IC50) was > 10 µM.

For the compound `O=C(O)CCCNC(=O)CCn1nnc2ccccc2c1=O`, the IC90 is > 10.8 µM. The IC50 under setting [1] is > 10.8 µM.

As for `Cc1ccc2c(c1)C1CN(C)CCC1N2C(=O)c1cc(-c2ccc(F)cc2)nc2ccccc12` (stereo not given), the IC90 is > 10 µM. Also, the IC50 under setting [1] is > 10 µM.

`O=S(=O)(Nc1ccc(S(=O)(=O)NC2CC2)cc1)c1cc(F)cc(F)c1`: the IC90 is > 10 µM. Also, the IC50 under setting [1] was > 10 µM.

As for `CN(C)CCNC(=O)c1cccc(-c2cnc3ccc(-c4cccc(CO)c4)nn23)c1`, the IC90 turned out to be 1.58 µM. Further, the IC50 (HEPG2TOX_HILL_SLOPE 0.999, HEPG2TOX_R_SQUARED 0.943, PBLUC_HILL_SLOPE 3.71, PBLUC_R_SQUARED 0.586, read-out: LUCIFERASE INFECTION ASSAY - IC50) is 0.873 µM.

As for `CCn1c2ccccc2c2cc(CNCCNC(=O)c3nonc3N)ccc21`, the IC90 is > 8.72 µM. The IC50 under setting [1] is > 8.72 µM.

As to `O=C(c1cc2c(=O)n3ccccc3nc2s1)N(c1ccccn1)C1CCCCC1`, the IC90 is > 10 µM. For the setting “PBLUC_HILL_SLOPE 9.6, PBLUC_R_SQUARED 0.179, read-out: LUCIFERASE INFECTION ASSAY - IC50”, the IC50 stood at 9.45 µM.

As to `FC(F)(F)c1ccc2nc(SCc3nc(-c4ccc(Cl)cc4)no3)[nH]c2c1`, the IC90 is > 8.03 µM. The IC50 under setting [1] is > 8.03 µM.

As for `CCN(c1ccccc1)S(=O)(=O)c1ccc(OCC(=O)N(C)Cc2nc3ccccc3s2)cc1`, the IC90 was > 10 µM. Moreover, the IC50 (PBLUC_HILL_SLOPE 9.53, PBLUC_R_SQUARED 0.61, read-out: LUCIFERASE INFECTION ASSAY - IC50) is 9.27 µM.
